# Test system: CALHM1
# Experiment: CALHM1 N-glycosylation, western blot of transfected HEK293 cells
# Type: cell-based, human
# Conditions: HEK293 cells transfected with Myc-CALHM1 for six hours, 10 μg/ml tunicamycin, anti-Myc WB
# Experimental: Western blotting (WB) and immunoprecipitation (IP) assays. For WB, cells were washed with PBS and solubilized in ice-cold HEPES buffer (25 mM HEPES, pH 7.4, 150 mM NaCl, 1X Complete protease inhibitor cocktail, Roche) containing 1% SDS. Ten micrograms of extracts was analyzed by SDS-PAGE. A standard ECL detection procedure was then used. For multimerization analyses and IP, cells were harvested six hours after transfection with the indicated CALHM1 cDNAs. Cells were then solubilized for 2 h at 4° C. in HEPES buffer containing 1% Nonidet P-40. Cell extracts were pre-cleared by centrifugation at 10,000 rpm for 5 min. For multimerization analyses, cell extracts were analyzed by WB in the absence (non-reducing conditions) or presence of 5% β-mercaptoethanol (reducing conditions). For IP, supernatants were immunoprecipitated with immobilized anti-Myc antibody, as per supplier's instructions (ProFound Mammalian c-Myc Tag IP Kit, Pierce). Total extracts and immunoprecipitated proteins were then analyzed by WB.
# CALHM1 deglycosylation. […] CALHM1-transfected HT-22 cells were solubilized and incubated for 16 h at 37° C. in digestion buffer (50 mM NaH2PO4, pH 7.4, 20 mM EDTA, 0.2% SDS, and 1% β-mercaptoethanol) in the absence or presence of PNGase F. Cell lysates were then analyzed by WB using anti-Myc antibody, as described above.
substance,measurement,value
tunicamycin,appearance of the CALHM1 band of higher molecular weight (N-glycosylated form),completely inhibited

# — US8420309B2, “Method of screening compounds using CALHM (FAM26C)” (The Feinstein for Medical Research, priority 2007, dated 2013)
